Results from patent publication US20140200136A1, “Agricultural mixtures comprising arylquinazolinone compounds” (BASF SE, priority 2011, published 2014).
Read-outs that look alike come from different tables or passages of the source.

Tests used:
Format in all cases: cell-based
Pyricularia oryzae = details: single active
Leptosphaeria nodorum = assay: Activity against wheat leaf spots caused by Leptosphaeria nodorum (Leptno), microtiter plate test; details: single active, 7 days after inoculation
Septoria tritici = assay: Activity against leaf blotch on wheat caused by Septoria tritici (Septtr), microtiter plate test; details: single active

O=C(Nc1ccccc1-c1ccc(Cl)cc1)c1cccnc1Cl [Boscalid]
Observed efficacy (Pyricularia oryzae; 16 ppm): 8

Cc1cc(F)c(-n2cnc3ccc(F)cc3c2=O)cc1[S+]([O-])CC(F)(F)F (stereo not drawn) [CE.I.31, 6-Fluoro-3-[2-fluoro-4-methyl-5-2(2,2,2-trifluoroethanesulfinyl)-phenyl]-3H-quinazolin-4-one]
Observed efficacy (Leptosphaeria nodorum; concentration 63 ppm): 19
Observed efficacy (Pyricularia oryzae; 1 ppm): 8
Observed efficacy (Pyricularia oryzae; 4 ppm): 11
Observed efficacy (Pyricularia oryzae; 63 ppm): 16
Observed efficacy (Septoria tritici; 63 ppm): 19

COC(=O)Nc1nc2ccccc2[nH]1 [Carbendazim]
Observed efficacy (Pyricularia oryzae; 0.25 ppm): 19

N#Cc1c(Cl)c(Cl)c(Cl)c(C#N)c1Cl [Chlorothalonil]
Observed efficacy (Pyricularia oryzae; 0.25 ppm): 30

Cc1ccc(-c2c(Cl)nc(C#N)n2S(=O)(=O)N(C)C)cc1 [Cyazofamid]
Observed efficacy (Pyricularia oryzae; 1 ppm): 10

CO/N=C(/C1=NOCCO1)c1ccccc1Oc1ncnc(Oc2ccccc2Cl)c1F [Fluoxastrobin]
Observed efficacy (Septoria tritici; 0.25 ppm): 58

Cn1cc(C(=O)Nc2ccccc2-c2cc(F)c(F)c(F)c2)c(C(F)F)n1 [Fluxapyroxad]
Observed efficacy (Septoria tritici; 0.063 ppm): 58

CO/C=C(/C(=O)OC)c1ccccc1COc1cccc(C(F)(F)F)n1 [Picoxystrobin]
Observed efficacy (Pyricularia oryzae; 0.016 ppm): 19

COC(=O)N(OC)c1ccccc1COc1ccn(-c2ccc(Cl)cc2)n1 [Pyraclostrobin]
Observed efficacy (Pyricularia oryzae; 0.004 ppm): 32

CON=C(C(=O)OC)c1ccccc1CON=C(C)c1cccc(C(F)(F)F)c1 [Trifloxystrobin]
Observed efficacy (Pyricularia oryzae; 0.016 ppm): 26

zinc propylenebis(dithiocarbamate) polymer [Propineb, reference compound]
Observed efficacy (Leptosphaeria nodorum; concentration 4 ppm): 57
